Source: ChEMBL document CHEMBL1201862, “PubChem BioAssay data set” (2004)
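48-hour exposure; five concentrations; linearly interpolated endpoints. GI50 marks 50% less growth.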 The source made the active and inactive calls. Rule as the data show it: active = GI50 up to about 1.1 µM and inactive = higher.

Experiments:
Experiment in all cases: NCI tumour cell line growth inhibition, 48 h
[1] = test system: SF-539
[2] = test system: SR
[3] = test system: RPMI-8226
[4] = test system: HT-29
[5] = test system: A498
[6] = test system: T47D
[7] = test system: SNB-75
[8] = test system: HCT-15
[9] = test system: M14
[10] = test system: 786-0
[11] = test system: MDA-N
[12] = test system: SK-MEL-28
[13] = test system: U-251
[14] = test system: LOX IMVI
[15] = test system: KM12
[16] = test system: MDA-MB-231
[17] = test system: SW-620
[18] = test system: CCRF-CEM
[19] = test system: Malme-3M
[20] = test system: NCI-H522

Cc1ccc(C2SC(=N)Nc3c2c(C)nn3C(=O)c2ccccc2O)cc1 (stereo not drawn)
GI50 [1]: 5.68 µM (inactive) | GI50 [2]: > 10 µM (inactive) | GI50 [3]: > 10 µM (inactive) | GI50 [4]: > 10 µM (inactive) | GI50 [5]: 3.59 µM (inactive) | GI50 [6]: > 10 µM (inactive) | GI50 [7]: 2.54 µM (inactive) | GI50 [8]: > 10 µM | GI50 [9]: > 10 µM (inactive) | GI50 [10]: > 10 µM (inactive) | GI50 [11]: 7.14 µM (inactive) | GI50 [12]: > 10 µM (inactive) | GI50 [13]: 5.38 µM (inactive) | GI50 [14]: > 10 µM (inactive) | GI50 [15]: > 10 µM (inactive) | GI50 [16]: > 10 µM (inactive) | GI50 [17]: > 10 µM (inactive) | GI50 [18]: > 10 µM (inactive) | GI50 [19]: > 10 µM (inactive)

CC(C)N(C(=O)c1ccc(NCc2cc(O)ccc2O)cc1)C(C)C
GI50 [1]: 12.9 µM (inactive) | GI50 [2]: > 100 µM (inactive) | GI50 [4]: 18 µM (inactive) | GI50 [5]: 18 µM (inactive) | GI50 [6]: 11.8 µM (inactive) | GI50 [7]: 24.8 µM (inactive) | GI50 [8]: 16.8 µM | GI50 [9]: 17.2 µM (inactive) | GI50 [10]: 13 µM (inactive) | GI50 [11]: 17.7 µM (inactive) | GI50 [12]: 16.9 µM (inactive) | GI50 [13]: 15.8 µM (inactive) | GI50 [20]: 1.59 µM (inactive) | GI50 [14]: 14.7 µM (inactive) | GI50 [16]: 14.3 µM (inactive) | GI50 [17]: 21.5 µM (inactive) | GI50 [18]: 3.08 µM (inactive) | GI50 [19]: 13.9 µM (inactive)

Cc1cnc2nc(-c3cccc4ccccc34)cc(O)c2c1
GI50 [1]: 0.000618 µM (active) | GI50 [2]: 0.000352 µM (active) | GI50 [3]: 0.000487 µM (active) | GI50 [4]: 0.000412 µM (active) | GI50 [5]: 0.000352 µM (active) | GI50 [6]: 26 µM (inactive) | GI50 [7]: 0.000407 µM (active) | GI50 [8]: 0.000454 µM | GI50 [9]: 0.000711 µM (active) | GI50 [10]: 0.000791 µM (active) | GI50 [11]: 0.000216 µM (active) | GI50 [12]: 0.000619 µM (active) | GI50 [13]: 0.000532 µM (active) | GI50 [20]: 0.000261 µM (active) | GI50 [14]: 0.000819 µM (active) | GI50 [15]: 0.000551 µM (active) | GI50 [16]: 0.00493 µM (active) | GI50 [17]: 0.000449 µM (active) | GI50 [18]: 0.000692 µM (active) | GI50 [19]: 0.000289 µM (active)

COc1ccccc1/C=C1\CCC(Cc2ccccc2)(CN(C)C)C1=O (stereo not drawn)
GI50 [1]: 1.52 µM (inactive) | GI50 [2]: 0.0948 µM (active) | GI50 [3]: 0.612 µM (active) | GI50 [4]: 0.426 µM (active) | GI50 [5]: 6.93 µM (inactive) | GI50 [6]: 22.2 µM (inactive) | GI50 [7]: 3.32 µM (inactive) | GI50 [8]: 0.29 µM | GI50 [9]: 3.13 µM (inactive) | GI50 [10]: 1.43 µM (inactive) | GI50 [11]: 0.685 µM (active) | GI50 [12]: 20.3 µM (inactive) | GI50 [13]: 0.524 µM (active) | GI50 [20]: 0.597 µM (active) | GI50 [14]: 1.19 µM (inactive) | GI50 [15]: 0.319 µM (active) | GI50 [16]: 4.59 µM (inactive) | GI50 [17]: 0.259 µM (active) | GI50 [18]: 0.528 µM (active) | GI50 [19]: 14.1 µM (inactive)

Cn1c(=O)c2nc3nnc(C#N)c(N)n3c2n(C)c1=O
GI50 [1]: 90.2 µM (inactive) | GI50 [2]: > 100 µM (inactive) | GI50 [3]: > 100 µM (inactive) | GI50 [4]: > 100 µM (inactive) | GI50 [5]: 51.4 µM (inactive) | GI50 [6]: 33 µM (inactive) | GI50 [8]: > 100 µM | GI50 [9]: > 100 µM (inactive) | GI50 [10]: > 100 µM (inactive) | GI50 [11]: > 100 µM (inactive) | GI50 [12]: > 100 µM (inactive) | GI50 [13]: > 100 µM (inactive) | GI50 [20]: > 100 µM (inactive) | GI50 [15]: > 100 µM (inactive) | GI50 [16]: > 100 µM (inactive) | GI50 [18]: 67.8 µM (inactive) | GI50 [19]: 25.2 µM (inactive)

CC(=O)OC1CCC2(C)C(CCC3C2CC(=O)C2(C)C3CC(N3CC3)C2C(C)=O)C1 (stereo not drawn)
GI50 [1]: 11.8 µM (inactive) | GI50 [2]: 1.78 µM (inactive) | GI50 [3]: 18 µM (inactive) | GI50 [4]: 22.6 µM (inactive) | GI50 [5]: 19.6 µM (inactive) | GI50 [6]: 18.7 µM (inactive) | GI50 [7]: 17.2 µM (inactive) | GI50 [8]: 18.9 µM | GI50 [9]: 20.2 µM (inactive) | GI50 [10]: 18.6 µM (inactive) | GI50 [11]: 21.8 µM (inactive) | GI50 [12]: 30.7 µM (inactive) | GI50 [13]: 17.2 µM (inactive) | GI50 [20]: 12.2 µM (inactive) | GI50 [14]: 5.33 µM (inactive) | GI50 [15]: 17.1 µM (inactive) | GI50 [16]: 16.7 µM (inactive) | GI50 [17]: 21.1 µM (inactive) | GI50 [19]: 18.7 µM (inactive)

COC(=O)[C@H]1[C@@H](C(C)C)O[C@@H](C(C)C)O[C@H]1C(F)(F)F
GI50 [1]: > 100 µM (inactive) | GI50 [2]: > 100 µM (inactive) | GI50 [3]: > 100 µM (inactive) | GI50 [4]: > 100 µM (inactive) | GI50 [5]: > 100 µM (inactive) | GI50 [6]: > 100 µM (inactive) | GI50 [7]: > 100 µM (inactive) | GI50 [8]: > 100 µM | GI50 [9]: > 100 µM (inactive) | GI50 [10]: > 100 µM (inactive) | GI50 [11]: > 100 µM (inactive) | GI50 [12]: > 100 µM (inactive) | GI50 [13]: > 100 µM (inactive) | GI50 [20]: > 100 µM (inactive) | GI50 [14]: > 100 µM (inactive) | GI50 [15]: > 100 µM (inactive) | GI50 [16]: > 100 µM (inactive) | GI50 [17]: > 100 µM (inactive) | GI50 [18]: > 100 µM (inactive) | GI50 [19]: > 100 µM (inactive)
